Drawing on patent publication US4717767A, “7-amino-3-(pyrazinylmethyl) or (pyridazinylmethyl)-cephalosporins” (Toyama Chemical Co., Ltd., priority 1982, dated 1988), this text covers MIC, LD50 and dose excreted for 9 molecules.

Counter-ions that a name gives are not always drawn. Like-named read-outs stand apart in the source and are kept apart here.

The test system of one series is Ps. aeruginosa GN918. Nature of the series: Antibacterial activity (MIC), Ps. aeruginosa GN918. As to conditions: Pseudomonas aeruginosa, cephalosporinase-producing strain, Heart Infusion agar, 37° C., 20 hours, 10^6 cells/ml. Type of series: cell-based. From the text: (§1) The amount of the inoculated bacteria was 10^4 cells/plate (10^6 cells/ml).
In a further series the test system is E. coli TK-3. Nature of the series: Antibacterial activity (MIC), E. coli TK-3. Type of series: cell-based. The note with it: Escherichia coli, TK3; penicillinase-producing strain; Heart Infusion agar, 37° C., 20 hours, 10^6 cells/ml; read-out: MIC.
Text: as §1

In another series the test system is E. coli NIHJ. The series is described as follows: Antibacterial activity (MIC), E. coli NIHJ. The series is classed as cell-based. The note with it: Escherichia coli; Heart Infusion agar, 37° C., 20 hours, 10^4 cells/plate (10^6 cells/ml).
Text: as §1

The subject of a further series is Pro. mirabilis T-111. The series is described as follows: Antibacterial activity (MIC), Pro. mirabilis T-111. Type of series: cell-based. As to conditions: Proteus mirabilis, T111; Heart Infusion agar, 37° C., 20 hours, 10^6 cells/ml; read-out: MIC.
Text: as §1

A further series relates to Kl. pneumoniae Y-4. The series is described as follows: Antibacterial activity (MIC), Kl. pneumoniae Y-4. Type of series: cell-based. As to conditions: Klebsiella pneumoniae, Y4; penicillinase-producing strain; Heart Infusion agar, 37° C., 20 hours, 10^6 cells/ml.
Text: as §1

The next series deals with Pro. vulgaris GN76. Nature of the series: Antibacterial activity (MIC), Pro. vulgaris GN76. Type of series: cell-based. The note with it: Proteus vulgaris, cephalosporinase-producing strain, Heart Infusion agar, 37° C., 20 hours, 10^6 cells/ml.
Text: as §1

Another series has as its system Pro. morganii T-216. The series is described as follows: Antibacterial activity (MIC), Pro. morganii T-216. Type of series: cell-based. The note with it: Morganella morganii, T216; Heart Infusion agar, 37° C., 20 hours, 10^6 cells/ml.
Text: as §1

The subject of another series is Kl. pneumoniae Y-50. Nature of the series: Antibacterial activity (MIC), Kl. pneumoniae Y-50. The series is classed as cell-based. As to conditions: Klebsiella pneumoniae, Y50; Heart Infusion agar, 37° C., 20 hours, 10^6 cells/ml.
Text: as §1

Another series deals with Cit. freundii N-7. The series is described as follows: Antibacterial activity (MIC), Cit. freundii N-7. As to conditions: Citrobacter freundii, N7; Heart Infusion agar, 37° C., 20 hours, 10^6 cells/ml; read-out: MIC. Type of series: cell-based.
Text: as §1

The subject of another series is Ser. marcescens IID620. Nature of the series: Antibacterial activity (MIC), Ser. marcescens IID620. Type of series: cell-based. As to conditions: Serratia marcescens, IID620; Heart Infusion agar, 37° C., 20 hours, 10^6 cells/ml; read-out: MIC.
Text: as §1

The next series has as its system Kl. pneumoniae Y-41. Nature of the series: Antibacterial activity (MIC), Kl. pneumoniae Y-41. The series is classed as cell-based. The note with it: Klebsiella pneumoniae, Y41; Heart Infusion agar, 37° C., 20 hours, 10^6 cells/ml.
Text: as §1

For another series, the system named is Ser. marcescens W-134. The series is described as follows: Antibacterial activity (MIC), Ser. marcescens W-134. Type of series: cell-based. The note with it: Serratia marcescens.
Text: as §1

The nature of series [1]: Acute toxicity, intravenous, mice. As to conditions: mouse, in vivo, mice (ICR, male, 20-24 g). From the text:
LD50 values of the following test compounds were 3 g/kg or more when the compounds were intravenously administered to mice (ICR, male, body weight 20-24 g).

Series [2] is described as follows: Urinary recovery after oral administration to mice. The series is classed as in vivo, mice (ICR, male). As to conditions: urine, 1 mg/mouse in 0.5% CMC, 0-6 hours, 5 mice, mean ± S.E., free carboxylic acid by bioassay with Kl. pneumoniae ATCC 10031. The method, then: A test compound was orally administered to mice (ICR, male, 4 weeks old) in an amount of 1 mg/mouse, and a urinary recovery was determined.
In the test compounds (No. 1 and No. 2), the ester group is easily removed in a living body, whereby the compounds are converted into the corresponding free carboxylic acids. Therefore, the urinary recovery was determined by quantitatively measuring the free carboxylic acids excreted into urine.
Administration method: A test compound suspended in 0.5% CMC (Carboxy Methyl Cellulose) was orally administered.
Quantitative measurement method: The amount of free carboxylic acid was measured by bioassay (a paper-disc method) using the test organism mentioned in Table 2.

Setting [3] is: W134, Heart Infusion agar, 37° C., 20 hours, 10^6 cells/ml, read-out: MIC.

For `CO/N=C(\C(=O)NC1C(=O)N2C(C(=O)O)=C(Cn3ccn(C)c(=O)c3=O)CSC12)c1csc(N)n1` (stereo not drawn) [B, trifluoroacetic acid salt of 7-[2-(2-aminothiazol-4yl)-2-(syn)-methoxyiminoacetamido]-3-{[1-(4-methyl-2,3-dioxo-1,2,3,4-tetrahydropyrazinyl)]methyl}-Δ^3-cephem-4-carboxylic acid], the MIC is 25 µg/mL in the series on Ps. aeruginosa GN918; not above 0.1 µg/mL in the series with E. coli TK-3; not above 0.1 µg/mL against E. coli NIHJ; not above 0.1 µg/mL with Pro. mirabilis T-111; 0.2 µg/mL in the series with Kl. pneumoniae Y-4; 0.2 µg/mL with Pro. vulgaris GN76. The MIC in the series with Pro. morganii T-216 was not above 0.1 µg/mL; against Kl. pneumoniae Y-50, not above 0.1 µg/mL; in the series with Cit. freundii N-7 it was 1.56 µg/mL; in the series with Ser. marcescens IID620, not above 0.1 µg/mL; against Kl. pneumoniae Y-41, not above 0.1 µg/mL; in the series on Ser. marcescens W-134 (setting [3]), not above 0.1 µg/mL.

As for `CCn1ccn(CC2=C(C(=O)O)N3C(=O)C(NC(=O)/C(=N\OCC(=O)O)c4csc(N)n4)C3SC2)c(=O)c1=O` (stereo not drawn) [H, trifluoroacetic acid salt of 7-[2-(2-aminothiazol-4-yl)-2-(syn)-carboxymethoxyiminoacetamido]-3-{[1-(4-ethyl-2,3-dioxo-1,2,3,4-tetrahydropyrazinyl)]methyl}-Δ^3-cephem-4-carboxylic acid], the MIC in the series on Ps. aeruginosa GN918 was 6.25 µg/mL; in the series with E. coli TK-3, not above 0.1 µg/mL; in the series on E. coli NIHJ, not above 0.1 µg/mL; in the series on Pro. mirabilis T-111, not above 0.1 µg/mL; in the series on Kl. pneumoniae Y-4 it was 0.2 µg/mL; with Pro. vulgaris GN76, not above 0.1 µg/mL. Besides, the MIC is not above 0.1 µg/mL in the series on Pro. morganii T-216; 0.2 µg/mL against Kl. pneumoniae Y-50; 1.56 µg/mL with Cit. freundii N-7; not above 0.1 µg/mL in the series with Ser. marcescens IID620; not above 0.1 µg/mL in the series on Kl. pneumoniae Y-41; not above 0.1 µg/mL in the series on Ser. marcescens W-134 (setting [3]).

As to `CO/N=C(\C(=O)NC1C(=O)N2C(C(=O)O)=C(Cn3nc(C)ccc3=O)CSC12)c1csc(N)n1` (centres unmarked), the LD50 in series [1] is not below 3000 mg/kg.

Turning to `CO/N=C(\C(=O)NC1C(=O)N2C(C(=O)O)=C(Cn3[nH]c(=O)ccc3=O)CSC12)c1csc(N)n1` (centres unmarked), in series [1], the LD50 was not below 3000 mg/kg.

In the case of `CO/N=C(\C(=O)NC1C(=O)N2C(C(=O)O)=C(Cn3cc[nH]c(=O)c3=O)CSC12)c1csc(N)n1` (centres unmarked), in series [1], the LD50 was not below 3000 mg/kg.

`CCn1ccn(CC2=C(C(=O)O)N3C(=O)C(NC(=O)/C(=N\OC)c4csc(N)n4)C3SC2)c(=O)c1=O` (stereo not drawn) [C, trifluoroacetic acid salt of 7-[2-(2-aminothiazol-4-yl)-2-(syn)-methoxyiminoacetamido]-3-{[1-(4-ethyl-2,3-dioxo-1,2,3,4-tetrahydropyrazinyl)]methyl}-Δ^3-cephem-4-carboxylic acid]: the MIC with Ps. aeruginosa GN918 is 6.25 µg/mL; in the series on E. coli TK-3, not above 0.1 µg/mL; in the series with E. coli NIHJ, not above 0.1 µg/mL; in the series on Pro. mirabilis T-111 it was not above 0.1 µg/mL; in the series on Kl. pneumoniae Y-4 it was not above 0.1 µg/mL; in the series on Pro. vulgaris GN76, 1.56 µg/mL. The MIC was not above 0.1 µg/mL in the series with Pro. morganii T-216; not above 0.1 µg/mL in the series on Kl. pneumoniae Y-50; 0.78 µg/mL in the series on Cit. freundii N-7; not above 0.1 µg/mL with Ser. marcescens IID620; not above 0.1 µg/mL with Kl. pneumoniae Y-41; not above 0.1 µg/mL in the series on Ser. marcescens W-134 (setting [3]).

Turning to `CO/N=C(\C(=O)NC1C(=O)N2C(C(=O)O)=C(Cn3ccn(C)c(=O)c3=O)CSC12)c1csc(N)n1` (centres unmarked), the LD50 in [1] is not below 3000 mg/kg.

Turning to `Cc1ccc(=O)n(CC2=C(C(=O)O)N3C(=O)C(NC(=O)/C(=N\OCC(=O)O)c4csc(N)n4)C3SC2)n1` (centres unmarked) [Compound 3], in series [2], the dose excreted at 6 h came out at 10.4 ± 1.1%.

Consider `CN(C)n1ccn(CC2=C(C(=O)O)N3C(=O)C(NC(=O)/C(=N\OCC(=O)O)c4csc(N)n4)C3SC2)c(=O)c1=O` (stereo not drawn) [I, trifluoroacetic acid salt of 7-[2-(2-aminothiazol-4-yl)-2-(syn)-carboxymethoxyiminoacetamido]-3-{[1-(4-dimethylamino-2,3-dioxo-1,2,3,4-tetrahydropyrazinyl)]methyl}-Δ^3-cephem-4-carboxylic acid], for which the MIC in the series on Ps. aeruginosa GN918 is 12.5 µg/mL; in the series with E. coli TK-3, not above 0.1 µg/mL; against E. coli NIHJ, not above 0.1 µg/mL; with Pro. mirabilis T-111, not above 0.1 µg/mL; against Kl. pneumoniae Y-4, 0.39 µg/mL; with Pro. vulgaris GN76 it was not above 0.1 µg/mL. Further, the MIC in the series with Pro. morganii T-216 was not above 0.1 µg/mL; against Kl. pneumoniae Y-50 it was 0.2 µg/mL; in the series on Cit. freundii N-7, 1.56 µg/mL; with Ser. marcescens IID620, not above 0.1 µg/mL; in the series on Kl. pneumoniae Y-41, 0.2 µg/mL; in the series on Ser. marcescens W-134 (W134, 20 h) it was not above 0.1 µg/mL.
